Results on 68 molecules are retold here after publication PMC6627609, “Targeting Quorum Sensing: High-Throughput Screening to Identify Novel LsrK Inhibitors” (International Journal of Molecular Sciences, 2019).

Structures can show the parent of a compound that is named as a salt.

Usually inhibition stands for the relative decrease from the control value, in per cent.

LsrK, sequence (Q8ZKQ6 whole entry): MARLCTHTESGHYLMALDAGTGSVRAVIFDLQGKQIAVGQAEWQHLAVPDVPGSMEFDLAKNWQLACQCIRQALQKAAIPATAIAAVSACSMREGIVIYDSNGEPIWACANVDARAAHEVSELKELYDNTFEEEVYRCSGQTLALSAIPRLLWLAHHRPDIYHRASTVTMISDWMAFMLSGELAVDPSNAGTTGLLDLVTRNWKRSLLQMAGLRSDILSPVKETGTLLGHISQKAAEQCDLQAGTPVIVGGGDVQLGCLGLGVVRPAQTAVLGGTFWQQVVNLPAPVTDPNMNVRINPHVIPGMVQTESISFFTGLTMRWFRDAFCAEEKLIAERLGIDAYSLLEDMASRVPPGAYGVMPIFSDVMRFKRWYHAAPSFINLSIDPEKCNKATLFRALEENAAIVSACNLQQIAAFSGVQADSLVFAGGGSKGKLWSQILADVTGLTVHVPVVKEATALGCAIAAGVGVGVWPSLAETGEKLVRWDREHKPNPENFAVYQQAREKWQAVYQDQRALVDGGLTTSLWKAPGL

One assay concerns the target LsrK (Salmonella typhimurium, UniProt Q8ZKQ6). The assay is described as follows: biochemical. In kind it is biochemical, S. typhimurium.
Conditions: not given
On to `CN(C(=O)CN(CCO)CC(=O)N(C)C(C)(C)Cc1ccccc1)C(C)(C)Cc1ccccc1` [OXETHAZAINE], for which the inhibition at 50 µM is 0%.

Turning to `O=C1c2c(O)cccc2Cc2cccc(O)c21` [ANTHRALIN], the inhibition at 50 µM was determined as 8%.

`CC(=O)O[C@]1(C(C)=O)CC[C@H]2[C@@H]3C[C@H](C)C4=CC(=O)CC[C@]4(C)[C@H]3CC[C@@]21C` [MEDROXYPROGESTERONE ACETATE]: the inhibition at 50 µM turned out to be 1%.

For `O=C(O)C1=C[C@@H](O)[C@@H](O)[C@H](O)C1` [SHIKIMIC ACID], the inhibition at 50 µM was 1%.

Take `Cc1c(C)c2c(c(C)c1O)CCC(C)(C(=O)O)O2` (centres unmarked) [TROLOX]: the inhibition at 50 µM came to 0%.

As to `CO[C@@]1(NC(=O)Cc2cccs2)C(=O)N2C(C(=O)O)=C(COC(N)=O)CS[C@@H]21` [CEFOXITIN SODIUM], the inhibition at 50 µM was determined as 3%.

For the molecule `CCOC(=O)C1=C(C)NC(C)=C(C(=O)OC)C1c1cccc([N+](=O)[O-])c1` (centres unmarked) [NITRENDIPINE], the inhibition at 50 µM was found to be 1%.

On to `O=c1[nH]c(=O)n([C@H]2C[C@H](O)[C@@H](CO)O2)cc1F` [FLOXURIDINE], for which the inhibition at 50 µM is 0%.

With `c1ccc(/N=N/c2ccccc2)cc1` [AZOBENZENE], the inhibition at 50 µM was found to be 1%.

For `CCCCCC(=O)Cc1cc(O)cc(O)c1C(=O)Oc1cc(CC(=O)CCCCC)c(C(=O)O)c(OC)c1` [[…]], the inhibition at 50 µM came out at 0%.

For `C[C@@H]1O[C@@H]1P(=O)(O)O` [FOSFOMYCIN CALCIUM], the inhibition at 50 µM was determined as 1%.

Take `CC(C)(N)Cc1ccccc1` [PHENTERMINE]: the inhibition at 50 µM was 15%.

On to `CC(C)c1cc2c(c(O)c1O)[C@@]1(C(=O)O)CCCC(C)(C)[C@@H]1CC2` [CARNOSIC ACID], for which the inhibition at 50 µM came out at 2%.

As for `C[C@H]1[C@H]2CC[C@H]3[C@@H]4CC=C5C[C@@H](N(C)C)CC[C@]5(C)[C@H]4CC[C@]23CN1C` [CONESSINE], the inhibition at 50 µM was determined as 2%.

For `CN(C)CCCN1c2ccccc2Sc2ccccc21` [PROMAZINE HYDROCHLORIDE], the inhibition at 50 µM was 3%.

For the molecule `C[C@@H]1O[C@@H](Oc2c(-c3ccc(O)c(O)c3)oc3cc(O)cc(O)c3c2=O)[C@H](O)[C@H](O)[C@H]1O` [QUERCITRIN], the inhibition at 50 µM came to 2%.

As for `C[C@@](Cc1ccc(O)c(O)c1)(NN)C(=O)O` [CARBIDOPA], the inhibition at 50 µM was 0%.

Take `CN1CCCCC1c1ccc(-c2cccnc2)nc1` (centres unmarked) [ANABASAMINE HYDROCHLORIDE]: the inhibition at 50 µM is 2%.

For the molecule `COC(=O)c1c(C)cc(OC(=O)c2c(C)cc(O)c(C=O)c2O)c(C)c1O` [ATRANORIN], the inhibition at 50 µM is 0%.

Consider `CO[C@@]1(NC(=O)C(C(=O)O)c2ccc(O)cc2)C(=O)N2C(C(=O)O)=C(CSc3nnnn3C)CO[C@@H]21` (some centres unmarked) [MOXALACTAM DISODIUM], for which the inhibition at 50 µM turned out to be 1%.

For `Sc1nc2ccccc2s1` [2-MERCAPTOBENZOTHIAZOLE], the inhibition at 50 µM is 1%.

Take `OC(CCN1CCCCC1)(c1ccccc1)C1CC2C=CC1C2` (centres unmarked) [BIPERIDEN]: the inhibition at 50 µM came out at 1%.

As for `CC(=O)[C@H]1CC[C@H]2[C@@H]3CC=C4C[C@@H](OC(=O)CCC(=O)O)CC[C@]4(C)[C@H]3CC[C@]12C` [PREGNENOLONE SUCCINATE], the inhibition at 50 µM is 4%.

Turning to `O=[N+]([O-])O[C@@H]1CO[C@H]2[C@@H]1OC[C@@H]2O` [ISOSORBIDE MONONITRATE], the inhibition at 50 µM was 0%.

In the case of `CN(C)[C@@H]1C(O)=C(C(N)=O)C(=O)[C@@]2(O)C(O)=C3C(=O)c4c(O)cccc4[C@@](C)(O)[C@H]3C[C@@H]12` [TETRACYCLINE HYDROCHLORIDE], the inhibition at 50 µM turned out to be 114%.

For the molecule `Cc1ccc2c(Cl)cc(Cl)c(O)c2n1` [CHLORQUINALDOL], the inhibition at 50 µM is 0%.

For the molecule `O=C(/C=C/C=C/c1ccc2c(c1)OCO2)N1CCCCC1` [PIPERINE], the inhibition at 50 µM is 1%.

As to `C=C1C[C@@H]2[C@H](CC[C@]3(C)C(=O)CC[C@@H]23)[C@@]2(C)C=CC(=O)C=C12` [EXEMESTANE], the inhibition at 50 µM came to 11%.

Turning to `CN(C)c1ccc(O)c2c1C[C@H]1C[C@H]3[C@H](N(C)C)C(O)=C(C(N)=O)C(=O)[C@@]3(O)C(O)=C1C2=O` [MINOCYCLINE HYDROCHLORIDE], the inhibition at 50 µM was 71%.

On to `Nc1ncnc2c1ncn2[C@H]1C[C@H](O)[C@@H](CO)O1` [DEOXYADENOSINE], for which the inhibition at 50 µM was 3%.

Take `CC1(C)O[C@@H]2C[C@H]3[C@@H]4CCC5=CC(=O)CC[C@]5(C)[C@@]4(F)[C@@H](O)C[C@]3(C)[C@]2(C(=O)CCl)O1` [HALCINONIDE]: the inhibition at 50 µM was determined as 0%.

For `CCc1ccc2c(O)c3c(cc2c1C(=O)OC)C(=O)c1c(O)ccc(O)c1C3=O` [BISANHYDRORUTILANTINONE], the inhibition at 50 µM was determined as 2%.

Consider `NCC(=O)c1ccccc1` [PHENACYLAMINE HYDROCHLORIDE], for which the inhibition at 50 µM amounted to 1%.

Turning to `COc1cc([C@@H]2c3cc4c(cc3[C@@H](O[C@@H]3O[C@@H]5CO[C@@H](c6cccs6)O[C@H]5[C@H](O)[C@H]3O)[C@H]3COC(=O)[C@H]23)OCO4)cc(OC)c1O` [TENIPOSIDE], the inhibition at 50 µM worked out at 2%.

Turning to `CC(=O)Nc1ccccc1` [ACETANILIDE], the inhibition at 50 µM turned out to be 1%.

As for `CC1=CC2C(CC1=O)C(C)=CCC2C(C)C` (centres unmarked) [MUUROLLADIE-3-ONE], the inhibition at 50 µM came out at 1%.

Take `CCCCCCCCNC(C)C(O)c1ccc(SC(C)C)cc1` (centres unmarked) [SULOCTIDIL]: the inhibition at 50 µM came out at 0%.

Consider `COc1cc2c(cc1OC)C1(O)C(=O)c3ccc(O)c(C(=O)O)c3OC1CO2` (centres unmarked) [12a-HYDROXY-9-DEMETHYLMUNDUSERONE-8-CARBOXYLIC ACID], for which the inhibition at 50 µM was 3%.

Take `COC(=O)C[C@H]1C2(C)CC34OC5(C)O[C@@]6([C@H](OC)C(OC(=O)C(C)C)[C@]7(C)C(/C(=C(/OC)C(C)C)C(=O)O[C@H]7c7ccoc7)[C@@]6(O5)[C@H](OC)[C@@]3(OC)C2OC(C)=O)[C@]14C` (some centres unmarked) [CHUKRASIN METHYL ETHER]: the inhibition at 50 µM amounted to 1%.

In the case of `Cc1ccsc1/C=C/C1=NCCCN1C` [MORANTEL CITRATE], the inhibition at 50 µM amounted to 0%.

Regarding `O=C(CCCN1CCC(O)(c2ccc(Br)cc2)CC1)c1ccc(F)cc1` [BROMPERIDOL], the inhibition at 50 µM turned out to be 1%.

In the case of `O=C1OC(c2ccc(O)cc2)(c2ccc(O)cc2)c2ccccc21` [PHENOLPHTHALEIN], the inhibition at 50 µM was 0%.

Regarding `COC(=O)[C@H](Cc1ccccc1)NC(=O)[C@@H](N)CC(=O)O`, the inhibition at 50 µM came out at 0%.

With `CC(=O)OCC(=O)[C@@]12OC(C)(C)O[C@@H]1C[C@H]1[C@@H]3C[C@H](F)C4=CC(=O)C=C[C@]4(C)[C@@]3(F)[C@@H](O)C[C@@]12C` [FLUOCINONIDE], the inhibition at 50 µM came to 3%.

For the molecule `C/C(=C(\CCOP(=O)(O)O)SC(=O)c1ccccc1)N(C=O)Cc1cnc(C)nc1N` [BENFOTIAMINE], the inhibition at 50 µM was found to be 0%.

On to `O=C(O)COCCN1CCN(C(c2ccccc2)c2ccc(Cl)cc2)CC1` (centres unmarked) [CETIRIZINE HYDROCHLORIDE], for which the inhibition at 50 µM was determined as 1%.

For `Cc1nccc2c1[nH]c1cc(O)ccc12` [HARMOL HYDROCHLORIDE], the inhibition at 50 µM worked out at 3%.

In the case of `OCCOCCN1CCN(C(c2ccccc2)c2ccc(Cl)cc2)CC1` (centres unmarked) [HYDROXYZINE PAMOATE], the inhibition at 50 µM amounted to 125%.

`CC1(C)[C@@H](O)CC[C@]2(C)[C@H]3C(=O)C=C4[C@@H]5C[C@@](C)(C(=O)O)CC[C@]5(C)CC[C@@]4(C)[C@]3(C)CC[C@@H]12` [ENOXOLONE]: the inhibition at 50 µM is 2%.

Take `COc1cc(-c2ccc(/N=N/c3ccc4c(S(=O)(=O)O)cc(S(=O)(=O)O)c(N)c4c3O)c(OC)c2)ccc1/N=N/c1ccc2c(S(=O)(=O)O)cc(S(=O)(=O)O)c(N)c2c1O` [CHICAGO SKY BLUE]: the inhibition at 50 µM came to 41%.

`COC(=O)CC1C(C)(C)C(OC(C)=O)[C@@H]2[C@@H](OC(C)=O)[C@]34O[C@@]2(O)[C@]1(C)C3CC[C@]1(C)C4=CC(=O)O[C@H]1c1ccoc1` (some centres unmarked) [[…]]: the inhibition at 50 µM was determined as 2%.

Turning to `C/C=C(/C(=C/C)c1ccc(O)cc1)c1ccc(O)cc1` [DIENESTROL], the inhibition at 50 µM worked out at 2%.

`CC(=O)O[C@H]1C[C@@H]2CC[C@@H]3[C@H](CC[C@@]4(C)[C@H]3C[C@H]([N+]3(C)CCCCC3)[C@@H]4OC(C)=O)[C@@]2(C)C[C@@H]1[N+]1(C)CCCCC1` [PANCURONIUM BROMIDE]: the inhibition at 50 µM was 0%.

Turning to `N=c1ccn2c(n1)O[C@H]1[C@H](O)[C@@H](CO)O[C@H]12` [ANCITABINE HYDROCHLORIDE], the inhibition at 50 µM worked out at 2%.

The same assay, now with this note: 50 µM.
Take `O=c1ccc2cc(O[C@@H]3O[C@H](CO)[C@@H](O)[C@H](O)[C@H]3O)c(O)cc2o1` [AESCULIN]: the “Inhibition (%)” value is reported as 1.

Turning to `CC(=O)c1c(O)cc(O)cc1O` [PHLORACETOPHENONE], the “Inhibition (%)” value stood at 1.

For `O=C(O)c1nc2cc(Cl)c(Cl)cc2nc1O` [6.7-DICHLORO-3-HYDROXY-2-QUINOXALINECARBOXYLIC ACID], the “Inhibition (%)” value is recorded as 1.

For `CN1CCCN=C1/C=C/c1cccc(O)c1.O=C(O)c1cc2ccccc2c(Cc2c(O)c(C(=O)O)cc3ccccc23)c1O` [OXANTEL PAMOATE], the “Inhibition (%)” value amounted to 6.

Turning to `C[N+](C)(C)CC(O)CC(=O)O.[Cl-]` (stereo not drawn) [CARNITINE (dl) HYDROCHLORIDE], the “Inhibition (%)” value is recorded as 3.

Turning to `CNCCCC1c2ccccc2C=Cc2ccccc21.Cl` [PROTRYPTYLINE HYDROCHLORIDE], the “Inhibition (%)” value is 1.

As for `CNCc1ccccc1.Cl` [N-METHYLBENZYLAMINE HYDROCHLORIDE], the “Inhibition (%)” value came out at 0.

`O=C(CNC(=O)c1ccc(Cl)cc1)NO` [BENURESTAT]: the “Inhibition (%)” value is 3.

With `Cl.NCCS` [CYSTEAMINE HYDROCHLORIDE], the “Inhibition (%)” value was 19.

In the case of `O=C(/C=C/c1ccc(O)cc1)c1ccccc1O` [2'.4-DIHYDROXYCHALCONE], the “Inhibition (%)” value turned out to be 58.

Consider `C1CCN2C[C@@H]3C[C@@H](CN4CCCC[C@@H]34)[C@H]2C1.I` [SPARTEINE HYDROIODIDE], for which the “Inhibition (%)” value is 1.

Regarding `C=CCCCCCCCCCCCc1ccco1` [AVOCADENOFURAN], the “Inhibition (%)” value is 2.

With `Cl.Cl.O=C1c2c(O)ccc(O)c2C(=O)c2c(NCCNCCO)ccc(NCCNCCO)c21` [MITOXANTHRONE HYDROCHLORIDE], the “Inhibition (%)” value stood at 2.

With TANNIC ACID, the “Inhibition (%)” value worked out at 94.
